Measurements: patent publication US6528618B1, “Anti-inflammatory peptides derived from C-reactive protein” (Yeda Research and Development Co. Ltd., priority 1997, dated 2003)
Where a SMILES comes first, the peptide text is derived from it.

Target: T1, human leukocyte elastase (hLE) (Homo sapiens, UniProt P08246)
T1 construct: Neutrophils (1.4 billion) were isolated from whole blood obtained from a single healthy laboratory donor; from tissue; host or cells: neutrophils from whole blood of a single healthy donor
T1 sequence (P08246 30-247 limits assumed): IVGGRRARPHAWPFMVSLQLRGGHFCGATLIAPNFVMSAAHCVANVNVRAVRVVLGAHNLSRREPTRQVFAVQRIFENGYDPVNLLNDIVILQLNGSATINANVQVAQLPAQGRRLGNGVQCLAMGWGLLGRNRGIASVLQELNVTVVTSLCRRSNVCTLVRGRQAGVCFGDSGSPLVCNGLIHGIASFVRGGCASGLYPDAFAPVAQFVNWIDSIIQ
Assay: In vitro inhibition of hLE (cleavage of MeOSuc-AAPV-NA)
Assay type: biochemical
Settings: for fold decrease in hLE inhibitory activity compared to peptide 6: relative to peptide 6; for Ki: hLE Ki [μM], Table 2, substrate MeOSuc-AAPV-NA 200 μM, pH 7.4, 37 C
Protocol: The enzymatic activity was assayed with MeOSuc-AAPV-NA for hLE determination and Suc-AAPF-NA for hCG determination (both in 100 mM Hepes buffer, pH 7.4, containing 0.05% of the […] detergent Brij-35). The activities of the individual enzymatic fractions were 100% free from cross-contamination. […] The fractions containing hLE and hCG were dialyzed each against 0.1% pyridinium acetate, pH 5.3, divided into 20 aliquots, lyophilized, and stored at −20 ° C. until use.
(v) Inhibition experiments with hLE: Peptides were dissolved in 100 mM Hepes buffer pH 7.4 containing 0.1% Brij-35 with 10%. DMSO to yield 300 μM solutions, which were used to make further dilutions with the same buffer, and 80 μL aliquots were added in duplicates to 96-well plates. The substrate, 600 μM MeOSuc-AAPV-NA in the same buffer with 5% DMSO, was added to each well in addition to the blank wells, and the plate was placed in the plate reader equilibrated to 37 C (Dynateck MR-6000). Lyophilized aliquots of hLE were dissolved in 1600 μL of 100 mM Hepes buffer without DMSO, and 80 μL of the enzyme solution was added to the peptides and substrate to initiate the reaction. […] The final volume was 240 μL containing: 5% DMSO, 1-100 μM of peptide, 200 μM substrate, and 0.75 μg (˜25 picomol) enzyme.
(viii) Calculations: For hLE, V is determined by fitting a linear equation to the first 6 time-points (10 min) of the kinetics data using the least squares method. […] Several inhibitor concentration in duplicates and two control wells were used to fit a linear equation to graphs of Vo/Vi−1 vs. [I] for each inhibitor using the least squares method (8 data points for each inhibitor). From calculating the error in the slope of the equation, the relative error for Ki was deduced:
Ki={slope*(1+[S]/Km)}^−1because Ki=[I]*{(1+[S]/Km)*(Vo/Vi−1)}^−1.
The hLE inhibitory capability of CRP-derived peptides was evaluated by inhibiting the enzymatic cleavage of MeOSuc-AAPV-NA as described in Materials and Methods (section v).

Row | Structure (SMILES) | fold decrease in hLE inhibitory activity compared to peptide 6 [fold] | hLE inhibitory activity (in words) | Ki [µM]
1 | CC[C@H](C)[C@H](NC(=O)[C@H](CC(=O)O)NC(=O)[C@H](CCCCN)NC(=O)[C@H](CO)NC(=O)[C@H](Cc1c[nH]c2ccccc12)NC(=O)[C@H](Cc1ccccc1)NC(=O)[C@@H](NC(=O)[C@H](CC(C)C)NC(=O)[C@@H](NC(=O)[C@@H](N)CC(=O)O)[C@@H](C)CC)[C@@H](C)CC)C(=O)NCC(=O)N[C@@H](Cc1ccc(O)cc1)C(=O)N[C@@H](CO)C(=O)N[C@@H](Cc1ccccc1)C(=O)N[C@H](C(=O)O)[C@@H](C)O [Peptide 18, Asp-Ile-Leu-Ile-Phe-Trp-Ser-Lys-Asp-Ile-Gly-Tyr-Ser-Phe-Thr] (H-DILIFWSKDIGYSFT-OH; N-terminus and C-terminus assumed) | 10 | – | –
2 | CC[C@H](C)[C@H](NC(=O)[C@H](CC(=O)O)NC(=O)[C@H](CCCCN)NC(=O)[C@@H]1CCCN1C(=O)[C@H](Cc1c[nH]c2ccccc12)NC(=O)[C@H](Cc1ccccc1)NC(=O)[C@@H](NC(=O)[C@H](CC(C)C)NC(=O)[C@@H](NC(=O)[C@@H](N)CCC(=O)O)[C@@H](C)CC)[C@@H](C)CC)C(=O)NCC(=O)N[C@@H](Cc1ccc(O)cc1)C(=O)N[C@@H](CO)C(=O)N[C@@H](Cc1ccccc1)C(=O)N[C@H](C(=O)O)[C@@H](C)O [Peptide 19, Glu-Ile-Leu-Ile-Phe-Trp-Pro-Lys-Asp-Ile-Gly-Tyr-Ser-Phe-Thr] (H-EILIFWPKDIGYSFT-OH; N-terminus and C-terminus assumed) | – | two orders of magnitude loss of inhibitory activity | > 200
3 | CC[C@H](C)[C@H](NC(=O)CNC(=O)[C@H](Cc1ccc(O)cc1)NC(=O)[C@H](CO)NC(=O)[C@H](Cc1ccccc1)NC(=O)[C@@H](N)[C@@H](C)O)C(=O)N[C@@H](CC(=O)O)C(=O)N[C@@H](CCCCN)C(=O)N[C@@H](CO)C(=O)N[C@@H](Cc1c[nH]c2ccccc12)C(=O)N[C@@H](Cc1ccccc1)C(=O)N[C@H](C(=O)N[C@@H](CC(C)C)C(=O)N[C@H](C(=O)N[C@@H](CCC(=O)O)C(=O)O)[C@@H](C)CC)[C@@H](C)CC [Peptide 24, Thr-Phe-Ser-Tyr-Gly-Ile-Asp-Lys-Ser-Trp-Phe-Ile-Leu-Ile-Glu] (H-TFSYGIDKSWFILIE-OH; N-terminus and C-terminus assumed) | 30 | – | –
4 | CC[C@H](C)[C@H](NC(=O)[C@H](CC(=O)O)NC(=O)[C@H](C)NC(=O)[C@H](CO)NC(=O)[C@H](Cc1c[nH]c2ccccc12)NC(=O)[C@H](Cc1ccccc1)NC(=O)[C@@H](NC(=O)[C@H](CC(C)C)NC(=O)[C@@H](NC(=O)[C@@H](N)CCC(=O)O)[C@@H](C)CC)[C@@H](C)CC)C(=O)O [Peptide 25, Glu-Ile-Leu-Ile-Phe-Trp-Ser-Ala-Asp-Ile] (H-EILIFWSADI-OH; N-terminus and C-terminus assumed) | – | slightly more potent than peptide 14 | 3 ± 0.5
5 | CC[C@H](C)[C@H](NC(=O)[C@H](CC(=O)O)NC(=O)[C@@H](NC(=O)[C@H](CO)NC(=O)[C@H](Cc1c[nH]c2ccccc12)NC(=O)[C@H](Cc1ccccc1)NC(=O)[C@@H](NC(=O)[C@H](CC(C)C)NC(=O)[C@@H](NC(=O)[C@@H](N)CCC(=O)O)[C@@H](C)CC)[C@@H](C)CC)C(C)C)C(=O)O [Peptide 26, Glu-Ile-Leu-Ile-Phe-Trp-Ser-Val-Asp-Ile] (H-EILIFWSVDI-OH; N-terminus and C-terminus assumed) | – | slightly more potent than peptide 14 | –
